# Key:
# [1] = tested on: Primary STAT3^mut bone marrow-derived mast cells (BMMC); experiment: BMMC degranulation (LAMP-1 on the plasma membrane by flow cytometry); type: cell-based, mice; conditions: DNP-specific IgE then DNP; peptide added prior to DNP; varying concentrations
# Protocol: Primary bone marrow-derived mast cells (BMMC) were cultured from STAT3^mut mice in RPMI-1640 Medium (Thermo Fisher Scientific) containing 10% fetal bovine serum (FBS), interleukin-3 (IL-3) and stem cell factor (SCF). To induce degranulation, BMMC were incubated with dinitrophenyl (DNP)-specific IgE followed by addition of DNP to crosslink IgE. To test effects of fMLFF and fMLYF, different concentrations were administered prior to the addition of DNP. Degranulation was measured by the amount of lysosomal-associated membrane protein 1 (LAMP-1) on the plasma membrane by flow cytometry.
# Primary STAT3^mut BMMC were treated with varying concentrations of fMLFF and fMLYF (FIG. 3A and FIG. 3B). Data shown in FIG. 3B were summarized from 3 individual experiments; bars indicate means+SEM; **p<0.001; ****p<0.00001, 2-way ANOVA with Tukey's multiple comparison. Assays were performed independently with fMLFF and fMLYF; data shown are cumulative for experiments using fMLFF and fMLYF individually.
# [2] = tested on: circulating IgE levels; experiment: IgE production in vivo (serum IgE by ELISA); design: species or system STAT3^mut mice; conditions: 2.5 mg/kg once per week for 3 weeks
# Protocol: Groups (n=4-6/group) were treated with fMLYF (2.5 mg/kg) or vehicle once per week for 3 weeks. Serum was collected to measure effects of peptide treatment on circulating IgE levels via ELISA (FIG. 1 and FIG. 5).
substance,measurement,setting,value
fMLFF,mast cell degranulation in vitro,[1],attenuated
same,IgE production in vivo,[2],attenuated

# From patent US20240024409A1, “N-f-MLF DERIVATIVES THAT INHIBIT FORMYL PEPTIDE RECEPTORS FOR THE TREATMENT OF DISEASE” (University of South Alabama, priority 2022, published 2024)
